Converted amounts (≈) assume the structure as drawn. Like-named read-outs stand apart in the source and are kept apart here.
Experiments:
Test in all cases: in vitro antibacterial MIC, agar plate dilution
Type in all cases: cell-based
Citrobacter div. K 82-24 = conditions: Citrobacter, DIV.K8224, 18 h, 35° C., read-out: MIC
Procedure, shortened: (§1)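 Read-out is visible growth inhibition on Mueller-Hinton agar dilution plates incubated 18 hours at 35° C after inoculation of ~10^4 CFU (Steers device), with MIC reported in mcg/ml.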

[1] = system: Enterobacter cloacae K 84-10; conditions: Enterobacter cloacae, K8410, 18 h, 35° C., read-out: MIC
Procedure, shortened: as §1

[2] = system: Enterobacter cloacae MOR 84-30; conditions: Enterobacter cloacae, MOR8430, 18 h, 35° C., read-out: MIC
Procedure, shortened: as §1

[3] = system: Escherichia coli ATCC 25922; conditions: Escherichia coli, ATCC25922, 18 h, 35° C., read-out: MIC
Procedure, shortened: as §1

[4] = system: Escherichia coli CMC 84-11; conditions: Escherichia coli, CMC8411, 18 h, 35° C., read-out: MIC
Procedure, shortened: as §1

[5] = system: Escherichia coli CMC 84-50; conditions: Escherichia coli, CMC8450, 18 h, 35° C., read-out: MIC
Procedure, shortened: as §1

[6] = system: Escherichia coli MOR 84-20; conditions: Escherichia coli, MOR8420, 18 h, 35° C., read-out: MIC
Procedure, shortened: as §1

[7] = system: Escherichia coli VGH 84-19; conditions: Escherichia coli, VGH8419, 18 h, 35° C., read-out: MIC
Procedure, shortened: as §1

[8] = system: Klebsiella pneumoniae CMC 84-31; conditions: Klebsiella pneumoniae, CMC8431, 18 h, 35° C., read-out: MIC
Procedure, shortened: as §1

[9] = system: Klebsiella pneumoniae IO 83-5; conditions: Klebsiella pneumoniae, IO835, 18 h, 35° C., read-out: MIC
Procedure, shortened: as §1

[10] = system: Klebsiella pneumoniae MOR 84-24; conditions: Klebsiella pneumoniae, MOR8424, 18 h, 35° C., read-out: MIC
Procedure, shortened: as §1

[11] = system: Morganella morganii CMC 84-38; conditions: Morganella morganii, CMC8438, 18 h, 35° C., read-out: MIC
Procedure, shortened: as §1

[12] = system: Proteus rettgeri IO 83-21; conditions: Providencia rettgeri, IO8321, 18 h, 35° C., read-out: MIC
Procedure, shortened: as §1

[13] = system: Providencia stuarti CMC 83-3; conditions: Providencia, CMC833, 18 h, 35° C., read-out: MIC
Procedure, shortened: as §1

[14] = system: Pseudomonas aeruginosa CMC 83-20; conditions: Pseudomonas aeruginosa, CMC8320, 18 h, 35° C., read-out: MIC
Procedure, shortened: as §1

[15] = system: Pseudomonas aeruginosa K 84-16; conditions: Pseudomonas aeruginosa, K8416, 18 h, 35° C., read-out: MIC
Procedure, shortened: as §1

[16] = system: Pseudomonas aeruginosa LL-1244; conditions: Pseudomonas aeruginosa, LL1244, 18 h, 35° C., read-out: MIC
Procedure, shortened: as §1

[17] = system: Pseudomonas aeruginosa VGH 84-3; conditions: Pseudomonas aeruginosa, VGH843, 18 h, 35° C., read-out: MIC
Procedure, shortened: as §1

[18] = system: Pseudomonas aeruginosa VGH 84-4; conditions: Pseudomonas aeruginosa, VGH844, 18 h, 35° C., read-out: MIC
Procedure, shortened: as §1

[19] = system: Serratia marcescens CMC 83-74; conditions: Serratia marcescens, CMC8374, 18 h, 35° C., read-out: MIC
Procedure, shortened: as §1

[20] = system: Serratia marcescens K 84-18; conditions: Serratia marcescens, K8418, 18 h, 35° C., read-out: MIC
Procedure, shortened: as §1

[21] = system: Serratia marcescens VGH 84-30; conditions: Serratia marcescens, VGH8430, 18 h, 35° C., read-out: MIC
Procedure, shortened: as §1

[22] = system: Staphylococcus aureus ATTC 29213; conditions: 35° C.
Procedure, shortened: as §1

[23] = system: Staphylococcus aureus CMC 83-131; conditions: Staphylococcus aureus, CMC83131, 18 h, 35° C., read-out: MIC
Procedure, shortened: as §1

[24] = system: Staphylococcus aureus K 82-26; conditions: Staphylococcus aureus, K8226, 18 h, 35° C., read-out: MIC
Procedure, shortened: as §1

[25] = system: Staphylococcus aureus Smith; conditions: Staphylococcus aureus, 18 h, 35° C., read-out: MIC
Procedure, shortened: as §1

[26] = system: Staphylococcus aureus VGH 84-45; conditions: Staphylococcus aureus, VGH8445, 18 h, 35° C., read-out: MIC
Procedure, shortened: as §1

[27] = system: Staphylococcus aureus VGH 84-47; conditions: Staphylococcus aureus, VGH8447, 18 h, 35° C., read-out: MIC
Procedure, shortened: as §1

[28] = system: Streptococcus faecalis CMC 83-120; conditions: Enterococcus faecalis, CMC83120, 18 h, 35° C., read-out: MIC
Procedure, shortened: as §1

[29] = system: Streptococcus faecalis UCI 85-19; conditions: Enterococcus faecalis, UCI8519, 18 h, 35° C., read-out: MIC
Procedure, shortened: as §1

[30] = system: Streptococcus faecalis UCI 85-30; conditions: Enterococcus faecalis, UCI8530, 18 h, 35° C., read-out: MIC
Procedure, shortened: as §1

[31] = system: Streptococcus faecalis VGH 84-65; conditions: Enterococcus faecalis, VGH8465, 18 h, 35° C., read-out: MIC
Procedure, shortened: as §1

[32] = system: Morganella morganii CMC 84-37; conditions: Morganella morganii, CMC8437, 18 h, 35° C., read-out: MIC
Procedure, shortened: as §1

[33] = Staphylococcus aureus, ATTC29213, 18 h, read-out: MIC

SMILES	MIC (Citrobacter div. K 82-24) [µg/mL]	MIC [1] [µg/mL]	MIC [2] [µg/mL]	MIC [4] [µg/mL]	MIC [5] [µg/mL]	MIC [6] [µg/mL]	MIC [7] [µg/mL]	MIC [8] [µg/mL]	MIC [9] [µg/mL]	MIC [10] [µg/mL]	MIC [11] [µg/mL]	MIC [12] [µg/mL]	MIC [13] [µg/mL]	MIC [14] [µg/mL]	MIC [15] [µg/mL]	MIC [16] [µg/mL]	MIC [17] [µg/mL]	MIC [18] [µg/mL]	MIC [19] [µg/mL]	MIC [20] [µg/mL]	other results
CCn1cc(C(=O)O)c(=O)c2cc(F)c(N3CCN(C)C(c4ccnn4C)C3)cc21 (centres unmarked) [Example 110, 1-Ethyl-6-fluoro-1,4-dihydro-7-[4-methyl-3-(1-methyl-1H-pyrazol-5-yl) -1-piperazinyl]-4-oxo-3-quinolinecarboxylic acid]	8 (≈ 19.3 µM)	4 (≈ 9.67 µM)	> 16	2 (≈ 4.84 µM)	4 (≈ 9.67 µM)	4 (≈ 9.67 µM)	4 (≈ 9.67 µM)	8 (≈ 19.3 µM)	16 (≈ 38.7 µM)	16 (≈ 38.7 µM)	8 (≈ 19.3 µM)	16 (≈ 38.7 µM)	> 16	> 16	> 16	128 (≈ 310 µM)	> 16	128 (≈ 310 µM)	> 16	8 (≈ 19.3 µM)	MIC [3]: 1 µg/mL (≈ 2.42 µM); MIC [21]: > 128 µg/mL; MIC ([22]; 18 hours): 1 µg/mL (≈ 2.42 µM); MIC [22, 33]: 0.5 µg/mL (≈ 1.21 µM); MIC [23]: 2 µg/mL (≈ 4.84 µM); MIC [24]: 16 µg/mL (≈ 38.7 µM); MIC [25]: 0.25 µg/mL (≈ 0.605 µM); MIC [26]: 0.5 µg/mL (≈ 1.21 µM); MIC [27]: 1 µg/mL (≈ 2.42 µM); MIC [28]: 16 µg/mL (≈ 38.7 µM); MIC [29]: 8 µg/mL (≈ 19.3 µM); MIC [30]: > 16 µg/mL; MIC [31]: 8 µg/mL (≈ 19.3 µM)
CN1CCN(c2c(F)c(F)c3c(=O)c(C(=O)O)cn(C4CC4)c3c2F)CC1 [Example 111, 1Cyclopropyl-5,6,8-trifluoro-1,4-dihydro-7-(4-methyl-1-piperazinyl) -4-oxo-3-quinolinecarboxylic acid]	0.002 (≈ 0.00524 µM)	0.004 (≈ 0.0105 µM)	0.06 (≈ 0.157 µM)	0.015 (≈ 0.0393 µM)	0.004 (≈ 0.0105 µM)	0.004 (≈ 0.0105 µM)	0.004 (≈ 0.0105 µM)	0.015 (≈ 0.0393 µM)	0.06 (≈ 0.157 µM)	0.06 (≈ 0.157 µM)	0.008 (≈ 0.021 µM)	0.008 (≈ 0.021 µM)	4 (≈ 10.5 µM)	4 (≈ 10.5 µM)	4 (≈ 10.5 µM)	4 (≈ 10.5 µM)	8 (≈ 21 µM)	2 (≈ 5.24 µM)	4 (≈ 10.5 µM)	0.12 (≈ 0.315 µM)	MIC [32]: 0.03 µg/mL (≈ 0.0787 µM); MIC [21]: 2 µg/mL (≈ 5.24 µM); MIC [22, 33]: 0.25 µg/mL (≈ 0.656 µM); MIC [23]: 0.25 µg/mL (≈ 0.656 µM); MIC [24]: 1 µg/mL (≈ 2.62 µM); MIC [25]: 0.25 µg/mL (≈ 0.656 µM); MIC [26]: 0.12 µg/mL (≈ 0.315 µM); MIC [27]: 0.12 µg/mL (≈ 0.315 µM); MIC [28]: 2 µg/mL (≈ 5.24 µM); MIC [29]: 4 µg/mL (≈ 10.5 µM); MIC [30]: 2 µg/mL (≈ 5.24 µM); MIC [31]: 4 µg/mL (≈ 10.5 µM)

— patent publication US5210193A, “Piperazine derivatives” (American Cyanamid Company, priority 1990, dated 1993)
